Results as given in patent US20100068211A1, “USE OF ANTIRESORPTIVE COMPOUNDS TO PREVENT IONIZING RADIATION-INDUCED ACTIVATION OF OSTEOCLASTS AND RESULTING BONE LOSS” (priority 2008, published 2010).
Marks after values point to notes of the source that are not given here.

Experiments:
[1] = test system: female B6 mice; test: High dose zoledronate against radiation-induced bone loss in mice, microCT (Example 6); type: in vivo; settings: for radiation-induced bone loss: 12-week-old mice, 2 Gy whole body X-rays, single 10 mg/kg dose of zoledronate, microCT 2 weeks after irradiation, 10 mg/kg
Method: The antiresorptive bisphosphonate zoledronate was selected as representative of the class of antiresorptive agents and was tested, at high doses of 10 mg/kg, for its ability to prevent radiation-induced bone loss.
12-week-old female B6 mice were either 1) not irradiated and treated with a placebo injection, 2) irradiated with a 2 Gy whole body dose of X-rays and treated with a placebo injection, or 3) irradiated with a 2 Gy whole body dose of X-rays and treated with a single 10 mg/kg dose of […]. Bones were collected and examined by microCT 2 weeks after irradiation and zoledronate injection.

[2] = test system: female C57BL/6 mice; test: Risedronate treatment of radiation-induced bone loss in mice, microCT (Example 4); type: in vivo; settings: 2 Gy whole body X-rays
[3] = test system: TRAP5b; test: Serum TRAP5b ELISA, irradiated mice treated with risedronate (Example 4b); type: in vivo; settings: 2 Gy irradiated mice, risedronate 30 μg/kg every other day, 7, 14 and 21 days
Method: (§1) Tissue collection: 12 individuals from each group were sacrificed at 1, 2, and 3 weeks following the initial radiation exposure. Each mouse weighed then anesthetized using isoflurane, and blood was collected for serum analysis by cardiac puncture and exsanguination followed by cervical dislocation to ensure death. Serum was isolated by centrifugation, flash frozen in liquid nitrogen, and stored at −80° C. The left and right hind limbs as well as the vertebral column were collected for analysis. Hind limbs were removed and disarticulated. Tibiae and femora were cleaned of soft tissue and fixed in a solution of 10% formalin. After 48 hours, the bones were placed in 70% ethanol. The vertebral column was frozen at −20° C. to ensure microcomputed tomography (microCT) analysis of the fifth lumbar vertebrae (L5).
(§2) Serum Chemistry: Serum samples were analyzed for circulating markers of bone formation and resorption. ELISA kits for osteocalcin (Biomedical Technologies, Inc., Stoughton, Mass.) and tartrate-resistant acid phosphatase (TRAP5b) (Immunodiagnostic Systems, Inc., Fountain Hills, Az.), respectively. The analyses were performed according to protocols provided by the manufacturers.

[4] = test system: osteocalcin; test: Serum osteocalcin ELISA, irradiated mice treated with risedronate (Example 4b); type: in vivo; settings: 2 Gy irradiated mice; risedronate 30 μg/kg every other day
Method: as §1, §2

[5] = test system: osteoclasts; test: Histological analysis of osteoclast surface (TRAP staining), proximal tibia trabecular bone (Example 4c); type: in vivo, mice; settings: one week after exposure, but not two and three weeks; 2 Gy; risedronate 30 micrograms/kg every other day; versus non-irradiated control
Source text: Osteoclast Identification: Following tomographic analysis, the left tibiae were decalcified using a formic acid solution (Immunocal; Decal Chemical Corp., Talman, N.Y.) and embedded in a glycol methacrylate resin (ImmunoBed™; Polysciences, Wasrrington, Pa.). The samples were cut into sagittal sections with a thickness of 3 μm. A subset of each group (n=5-6) was selected for analysis. Each slide was stained with TRAP using a commercial kit (Sigma, St. Louis, Mo.) to identify osteoclasts and counterstained with hematoxylin, Radiographs assessed the earliest time point of complete decalcification. […] Osteoclast presence was determined by tartrate resistant acid phosphatase (TRAP) staining of the slides using a commercial kit (Sigma; St. Louis, Mo.) and then counterstaining with hematoxylin (Sigma).
Histomorphometric evaluation was performed from captured micrographs (200×) throughout the metaphysis, starting approximately 0.25 mm distal from the growth plate (in order to exclude the primary spongiosa) and extending a further 0.5 mm. Bone histomorphometric parameters for the proximal metaphysis of the tibia were measured as described in the report of the American Society of Bone and Mineral Research (ASBMR) Histomophometry Nomenclature Committee (22). Surface measurements were quantified relative to total bone surface (BS). […]

[6] = test system: female Sprague-Dawley rats; test: Rat model, clinically-modeled radiation dose regimen with risedronate, tibia microCT (Example 5); type: in vivo; settings: risedronate 0.1 mg/kg/week subcutaneously; for Conn. Dens. (connectivity density) / SMI (structural model index) / Tb. N. (trabecular number) / Tb. Sp. (trabecular spacing) / Tb. Th (trabecular thickness) / BV/TV (bone volume fraction): mean ± SEM
Source text: The right hindlimb from twenty-one week old female Sprague-Dawley rats were irradiated using a clinical irradiator (linear accelerator; LINAC; Wake Forest University). The dose applied was 16 Gy given as 4 fractions of 4 Gy each. This dose is the equivalent in terms of biological impacts on the hip during the course of radiation therapy for cancer, as determined by radiation biophysicists. Irradiations (all four total) were provided over the course of two weeks. Animals either received no radiation, radiation only, or radiation+risedronate injection (0.1 mg/kg/week subcutaneously). Administration of risedronate was provided one day prior to the first irradiation, then three times per week until sacrifice.
Animals were sacrificed two and four weeks after exposure. Hindlimbs were removed, and the tibiae were examined via microCT for several parameters. Meanings of the following trabecular parameters as they relate with conditions of increased resorption or atrophy are provided in Example 3 Methods Section: BV/TV; connectivity density (Conn.Dens.); trabecular thickness (Tb.Th.); trabecular number (Tb.N); and trabecular spacing (Tb.S.) were again determined. All measurements were taken within a region extending 1 mm distal to the growth plate.

[7] = test system: rats; settings: 0.1 mg/kg/week administered subcutaneously; cited from earlier work
[8] = test system: aged rats; settings: aged rats (9 months then allowed to mature 60 days); 0.02 or 0.04 mg/kg/wk; cited from earlier work
[9] = test system: OVX rat; settings: OVX rats; administered orally; cited from earlier work
[10] = test system: minipigs; settings: 2.5 vs 0.5 mg/kg/day oral; cited from earlier work
[11] = realistic order stated in text; 1% assumed for dose conversion; cited from earlier work
[12] = cited from earlier work
[13] = risedronate 30 μg/kg subcutaneous every other day
[14] = 2 Week Examination, 16 Gy (4 x 4 Gy)
[15] = 4 Week Examination, 16 Gy (4 x 4 Gy)

O=P(O)(O)C(O)(Cn1ccnc1)P(=O)(O)O [zoledronate]
radiation-induced bone loss [1]: prevents radiation-induced bone loss | radiation-induced bone loss ([1]; listed as Zoledronate): prevented the bone loss | bone mass versus untreated, non-irradiated levels ([1]; growing mice, 2 Gy, single 10 mg/kg zoledronate, 2 weeks): increased to greater than untreated, non-irradiated levels

O=P(O)(O)C(O)(Cc1cccnc1)P(=O)(O)O [risedronate]
radiation-induced bone loss at the 5th lumbar vertebra (FIG. 13) [2, 13]: prevents rapid radiation-induced bone loss | radiation-induced bone loss at the distal femur (FIG. 12) [2, 13]: prevents rapid radiation-induced bone loss | radiation-induced bone loss (proximal tibia, distal femur and 5th lumbar vertebra) ([2]; risedronate 30 μg/kg/injection subcutaneous every other day, 1, 2 and 3 weeks): prevents radiation-induced bone loss | serum TRAP5b levels (marker for osteoclast activity) [3]: reduced at all time points | serum TRAP5b levels (marker for osteoclast activity) ([3]; listed as Risedronate): reduced TRAP5b levels at all time points | serum osteocalcin levels (marker for bone formation) [4]: trended to decrease levels | osteoclast surface, proximal tibia trabecular bone [5]: greater osteoclast surface | Conn. Dens. (connectivity density) [6, 14]: 95.4 ± 4.4^b l/mm^3 | SMI (structural model index) [6, 14]: 0.83 ± 0.07^e | Tb. N. (trabecular number) [6, 14]: 4.02 ± 0.11^g | Tb. Sp. (trabecular spacing) [6, 14]: 216 ± 8^g μm | Tb. Th (trabecular thickness) [6, 14]: 90.1 ± 1.4^b | BV/TV (bone volume fraction) ([6]; 2 Week Examination, right hindlimb 16 Gy (4 fractions of 4 Gy), tibia microCT): 31.9 ± 0.79^e % | effect on radiation-induced trabecular deterioration relative with control ([6]; 2 weeks, rats, 16 Gy): largely mitigated these changes | sparing effect on connectivity of the trabeculae compared with the differences after only receiving radiation ([6]; 2 weeks, rats): 12% | BV/TV (bone volume fraction) [6, 15]: 34.4 ± 1.2^b,^f % | Conn. Dens. (connectivity density) [6, 15]: 109.3 ± 4.6^e l/mm^3 | SMI (structural model index) [6, 15]: 0.68 ± 0.12^a,^f | Tb. N. (trabecular number) [6, 15]: 4.37 ± 0.09^f | Tb. Sp. (trabecular spacing) [6, 15]: 193 ± 5^f μm | Tb. Th (trabecular thickness) [6, 15]: 90.9 ± 1.1^c,^h | evidence of trabecular deterioration via microCT relative with control ([6]; Week 4, rats, 16 Gy): has disappeared by Week 4 | bone volume and fraction in GIO [7]: increased bone volume and fraction by reducing turnover | histomorphometric changes in the tibial diaphysis [8]: no histomorphometric changes | oral doses at which improvement in bone mineral density and preservation of microarchitecture generally occurred [9]: greater than 0.5 mg/kg/day | preserving architecture, comparison of oral doses [10]: more pronounced in animal models (minipigs) using 2.5 mg/kg/day than 0.5 mg/kg/day | oral bioavailability [11]: 0.5-0.7%

Denosumab: fully human anti-RANKL antibody that binds RANK ligand and blocks its binding to RANK, formerly AMG162 (Amgen)
effect of low doses on markers for bone formation ([12]; 0.01 mg/kg and 0.03 mg/kg): reduced markers for bone formation, but for only temporary periods | duration of efficacy ([12]; 0.3, 1.0 and 3.0 mg/kg): > 30 days | performance compared with standard 90 mg dose of pamidronate ([12]; 0.3, 1.0 and 3.0 mg/kg): performed similarly
